Experimental data published in patent publication US11091463B2, “Amide-substituted pyridinyltriazole derivatives and uses thereof” (BAYER PHARMA AKTIENGESELLSCHAFT, priority 2016, dated 2021).

Molecular target: T1, human V1a receptor (Homo sapiens, UniProt P37288)
T1 construct: expressed in transfected cells; host or cells: CHO K1 (ATCC), also stably transfected with a modified aequorin
Test: Cellular in vitro assay for vasopressin receptor activity, V1a receptor cell line (photoprotein luminescence)
Type: cell-based
Conditions: Table 1A; compounds of the invention; selectivity ratio
Procedure: B-1. Cellular In Vitro Assay for Determining Vasopressin Receptor Activity
The identification of agonists and antagonists of the V1a and V2 vasopressin receptors from humans, rats and dogs as well as the quantification of the activity of the compounds of the invention is carried out using recombinant cell lines. These cell lines originally derive from a hamster's ovary epithelial cell (Chinese Hamster Ovary, CHO K1, ATCC: American Type Culture Collection, Manassas, Va. 20108, USA). The test cell lines constitutively express the human, rat or dog V1a or V2 receptors. In case of the Gαq-coupled V1a receptors, cells are also stably transfected with a modified form of the calcium-sensitive photoproteins aequorin (human and rat V1a) or obelin (dog V1a), which, after reconstitution with the cofactor coelenterazine, emit light when there are increases in free calcium concentrations [Rizzuto R, Simpson A W, Brini M, Pozzan T, Nature, 358, 325-327 (1992); Illarionov B A, Bondar V S, Illarionova V A, Vysotski E S, Gene, 153 (2), 273-274 (1995)]. The resulting vasopressin receptor cells react to stimulation of the recombinantly expressed V1a receptors by intracellular release of calcium ions, which can be quantified by the resulting photoprotein luminescence. The Gs-coupled V2 receptors are stably transfected into cell lines expressing the gene for firefly luciferase under control of a CRE-responsible promoter. Activation of V2 receptors induces the activation of the CRE-responsive promoter via cAMP increase, thereby inducing the expression of firefly luciferase. The light emitted by photoproteins of V1a cell lines as well as the light emitted by firefly luciferase of V2 cell lines corresponds to the activation or inhibition of the respective vasopressin receptor. The bioluminescence of the cell lines is detected using a suitable luminometer [Milligan G, Marshall F, Rees S, Trends in Pharmacological Sciences, 17, 235-237 (1996)].
Vasopressin V1a Receptor Cell Lines:
On the day before the assay, the cells are plated out in culture medium (DMEM/F12, 2% FCS, 2 mM glutamine, 10 mM HEPES, 5 μg/ml coelenterazine) in 384-well microtiter plates and kept in a cell incubator (96% humidity, 5% v/v CO2, 37° C.). On the day of the assay, test compounds in various concentrations are placed for 10 minutes in the wells of the microtiter plate before the agonist [Arg^8]-vasopressin at EC50 concentration is added. The resulting light signal is measured immediately in a luminometer.
Table 1A below lists individual IC50 values for the compounds of the invention (including racemic mixtures as well as separated enantiomers) that were obtained from cell lines transfected with the human V1a or V2 receptor: […]

T1 sequence (P37288 whole entry): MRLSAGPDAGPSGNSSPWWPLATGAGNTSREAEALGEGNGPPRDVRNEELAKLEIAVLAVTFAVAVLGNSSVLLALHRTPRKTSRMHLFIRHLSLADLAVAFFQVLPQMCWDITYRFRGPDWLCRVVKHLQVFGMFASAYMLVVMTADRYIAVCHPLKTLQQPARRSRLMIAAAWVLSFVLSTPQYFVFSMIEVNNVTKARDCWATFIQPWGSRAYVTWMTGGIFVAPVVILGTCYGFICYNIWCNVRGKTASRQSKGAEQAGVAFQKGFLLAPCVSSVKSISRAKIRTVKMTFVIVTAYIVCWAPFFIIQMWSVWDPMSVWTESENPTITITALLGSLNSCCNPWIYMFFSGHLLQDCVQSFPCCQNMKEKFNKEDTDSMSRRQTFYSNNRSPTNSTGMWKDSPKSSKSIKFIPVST

Row | SMILES | ratio IC50 hV2/hV1a
1 | NC(=O)c1nc(Cn2nc(-c3ccc(Cl)cc3)n(C[C@H](O)C(F)(F)F)c2=O)nn1-c1ncccc1Cl [Example 1, 3-({3-(4-Chlorophenyl)-5-oxo-4-[(2S)-3,3,3-trifluoro-2-hydroxypropyl]-4,5-dihydro-1H-1,2,4-triazol-1-yl}methyl)-1-(3-chloropyridin-2-yl)-1H-1,2,4-triazole-5-carboxamide] | 38.2
2 | NC(=O)c1nc(Cn2nc(-c3ccc(Cl)cc3)n(C[C@H](O)C(F)(F)F)c2=O)nn1-c1ncccc1C(F)(F)F [Example 2, 3-({3-(4-Chlorophenyl)-5-oxo-4-[(2S)-3,3,3-trifluoro-2-hydroxypropyl]-4,5-dihydro-1H-1,2,4-triazol-1-yl}methyl)-1-[3-(trifluoromethyl)pyridin-2-yl]-1H-1,2,4-triazole-5-carboxamide] | 141.0
3 | NC(=O)c1nc(Cn2nc(-c3ccc(Cl)cc3)n(C[C@H](O)C(F)(F)F)c2=O)nn1-c1ncccc1OC(F)(F)F [Example 3, 3-({3-(4-Chlorophenyl)-5-oxo-4-[(2S)-3,3,3-trifluoro-2-hydroxypropyl]-4,5-dihydro-1H-1,2,4-triazol-1-yl}methyl)-1-[3-(trifluoromethoxy)pyridin-2-yl]-1H-1,2,4-triazole-5-carboxamide] | 54.7
4 | NC(=O)c1nc(Cn2nc(-c3ccc(Cl)cc3)n(C[C@H](O)C(F)(F)F)c2=O)nn1-c1ncccc1Br [Example 4, 1-(3-Bromopyridin-2-yl)-3-({3-(4-chlorophenyl)-5-oxo-4-[(2S)-3,3,3-trifluoro-2-hydroxypropyl]-4,5-dihydro-1H-1,2,4-triazol-1-yl}methyl)-1H-1,2,4-triazole-5-carboxamide] | 72.6
5 | CCOC(=O)c1cccnc1-n1nc(Cn2nc(-c3ccc(Cl)cc3)n(C[C@H](O)C(F)(F)F)c2=O)nc1C(N)=O [Example 5, Ethyl 2-[5-carbamoyl-3-({3-(4-chlorophenyl)-5-oxo-4-[(2S)-3,3,3-trifluoro-2-hydroxypropyl]-4,5-dihydro-1H-1,2,4-triazol-1-yl}methyl)-1H-1,2,4-triazol-1-yl]nicotinate] | 85.9
6 | NC(=O)c1nc(Cn2nc(-c3ccc(Cl)cc3)n(C[C@H](O)C(F)(F)F)c2=O)nn1-c1cnccc1Cl [Example 6, 3-({3-(4-Chlorophenyl)-5-oxo-4-[(2S)-3,3,3-trifluoro-2-hydroxypropyl]-4,5-dihydro-1H-1,2,4-triazol-1-yl}methyl)-1-(4-chloropyridin-3-yl)-1H-1,2,4-triazole-5-carboxamide] | 43.9
7 | NC(=O)c1nc(Cn2nc(-c3ccc(Cl)cc3)n(C[C@H](O)C(F)(F)F)c2=O)nn1-c1cnccc1C(F)(F)F [Example 7, 3-({3-(4-Chlorophenyl)-5-oxo-4-[(2S)-3,3,3-trifluoro-2-hydroxypropyl]-4,5-dihydro-1H-1,2,4-triazol-1-yl}methyl)-1-[4-(trifluoromethyl)pyridin-3-yl]-1H-1,2,4-triazole-5-carboxamide] | 117.3
8 | CCOC(=O)c1ccncc1-n1nc(Cn2nc(-c3ccc(Cl)cc3)n(C[C@H](O)C(F)(F)F)c2=O)nc1C(N)=O [Example 8, Ethyl 3-[5-carbamoyl-3-({3-(4-chlorophenyl)-5-oxo-4-[(2S)-3,3,3-trifluoro-2-hydroxypropyl]-4,5-dihydro-1H-1,2,4-triazol-1-yl}methyl)-1H-1,2,4-triazol-1-yl]isonicotinate] | 35.0
9 | NC(=O)c1cccnc1-n1nc(Cn2nc(-c3ccc(Cl)cc3)n(C[C@H](O)C(F)(F)F)c2=O)nc1C(N)=O [Example 9, 2-[5-carbamoyl-3-({3-(4-chlorophenyl)-5-oxo-4-[(2S)-3,3,3-trifluoro-2-hydroxypropyl]-4,5-dihydro-1H-1,2,4-triazol-1-yl}methyl)-1H-1,2,4-triazol-1-yl]nicotinamide] | 30.0
10 | NC(=O)c1nc(Cn2nc(-c3ccc(Cl)cc3)n(C[C@@H](O)C(F)(F)F)c2=O)nn1-c1ncccc1Cl [Example 10, 3-({3-(4-Chlorophenyl)-5-oxo-4-[(2R)-3,3,3-trifluoro-2-hydroxypropyl]-4,5-dihydro-1H-1,2,4-triazol-1-yl}methyl)-1-(3-chloropyridin-2-yl)-1H-1,2,4-triazole-5-carboxamide] | 116.2
11 | NC(=O)c1nc(Cn2nc(-c3ccc(Cl)cc3)n(C[C@@H](O)C(F)(F)F)c2=O)nn1-c1ncccc1C(F)(F)F [Example 11, 3-({3-(4-Chlorophenyl)-5-oxo-4-[(2R)-3,3,3-trifluoro-2-hydroxypropyl]-4,5-dihydro-1H-1,2,4-triazol-1-yl}methyl)-1-[3-(trifluoromethyl)pyridin-2-yl]-1H-1,2,4-triazole-5-carboxamide] | 196.8
12 | NC(=O)c1nc(Cn2nc(-c3ccc(Cl)cc3)n(C[C@@H](O)C(F)(F)F)c2=O)nn1-c1cnccc1Cl [Example 12, 3-({3-(4-Chlorophenyl)-5-oxo-4-[(2R)-3,3,3-trifluoro-2-hydroxypropyl]-4,5-dihydro-1H-1,2,4-triazol-1-yl}methyl)-1-(4-chloropyridin-3-yl)-1H-1,2,4-triazole-5-carboxamide] | 249.3
13 | NC(=O)c1nc(Cn2nc(-c3ccc(Cl)cc3)n(C[C@@H](O)C(F)(F)F)c2=O)nn1-c1cnccc1C(F)(F)F [Example 13, 3-({3-(4-Chlorophenyl)-5-oxo-4-[(2R)-3,3,3-trifluoro-2-hydroxypropyl]-4,5-dihydro-1H-1,2,4-triazol-1-yl}methyl)-1-[4-(trifluoromethyl)pyridin-3-yl]-1H-1,2,4-triazole-5-carboxamide] | 431.3
14 | NC(=O)c1nc(Cn2nc(-c3ccc(Cl)cc3)n(CC(=O)C(F)(F)F)c2=O)nn1-c1ncccc1Cl [Example 14, 3-{[3-(4-Chlorophenyl)-5-oxo-4-(3,3,3-trifluoro-2-oxopropyl)-4,5-dihydro-1H-1,2,4-triazol-1-yl]methyl}-1-(3-chloropyridin-2-yl)-1H-1,2,4-triazole-5-carboxamide (ketone form) or 3-{[3-(4-chlorophenyl)-5-oxo-4-(3,3,3-trifluoro-2,2-dihydroxypropyl)-4,5-dihydro-1H-1,2,4-triazol-1-yl]methyl}-1-[2-(trifluoromethyl)phenyl]-1H-1,2,4-triazole-5-carboxamide (hydrate form)] | 20.0
15 | NC(=O)c1nc(Cn2nc(-c3ccc(Cl)cc3)n(CC(=O)C(F)(F)F)c2=O)nn1-c1ncccc1Br [Example 15, 1-(3-Bromopyridin-2-yl)-3-{[3-(4-chlorophenyl)-5-oxo-4-(3,3,3-trifluoro-2-oxopropyl)-4,5-dihydro-1H-1,2,4-triazol-1-yl]methyl}-1H-1,2,4-triazole-5-carboxamide (ketone form) or 1-(3-Bromopyridin-2-yl)-3-{[3-(4-chlorophenyl)-5-oxo-4-(3,3,3-trifluoro-2,2-dihydroxypropyl)-4,5-dihydro-1H-1,2,4-triazol-1-yl]methyl}-1H-1,2,4-triazole-5-carboxamide (hydrate form)] | 47.2
16 | NC(=O)c1nc(Cn2nc(-c3ccc(Cl)cc3)n(CC(=O)C(F)(F)F)c2=O)nn1-c1cnccc1Cl [Example 16, 3-{[3-(4-Chlorophenyl)-5-oxo-4-(3,3,3-trifluoro-2-oxopropyl)-4,5-dihydro-1H-1,2,4-triazol-1-yl]methyl}-1-(4-chloropyridin-3-yl)-1H-1,2,4-triazole-5-carboxamide (ketone form) or 3-{[3-(4-Chlorophenyl)-5-oxo-4-(3,3,3-trifluoro-2,2-dihydroxypropyl)-4,5-dihydro-1H-1,2,4-triazol-1-yl]-methyl}-1-(4-chloropyridin-3-yl)-1H-1,2,4-triazole-5-carboxamide (hydrate form)] | 53.6
